Data as given in patent US9573954B2, “Pyrazolopyrimidine compounds” (University Health Network, priority 2012, dated 2017).

Tests used:
[1] = target: T1, human TTK (Homo sapiens, UniProt P33981); assay: TTK inhibition assay (indirect ELISA); type: biochemical; details: 100 μM ATP; read-out: TTK IC50 Range
T1 construct: Active TTK was purchased from Invitrogen as an amino terminal GST fusion of full length human TTK; purchased Invitrogen
T1 sequence (P33981 1-857): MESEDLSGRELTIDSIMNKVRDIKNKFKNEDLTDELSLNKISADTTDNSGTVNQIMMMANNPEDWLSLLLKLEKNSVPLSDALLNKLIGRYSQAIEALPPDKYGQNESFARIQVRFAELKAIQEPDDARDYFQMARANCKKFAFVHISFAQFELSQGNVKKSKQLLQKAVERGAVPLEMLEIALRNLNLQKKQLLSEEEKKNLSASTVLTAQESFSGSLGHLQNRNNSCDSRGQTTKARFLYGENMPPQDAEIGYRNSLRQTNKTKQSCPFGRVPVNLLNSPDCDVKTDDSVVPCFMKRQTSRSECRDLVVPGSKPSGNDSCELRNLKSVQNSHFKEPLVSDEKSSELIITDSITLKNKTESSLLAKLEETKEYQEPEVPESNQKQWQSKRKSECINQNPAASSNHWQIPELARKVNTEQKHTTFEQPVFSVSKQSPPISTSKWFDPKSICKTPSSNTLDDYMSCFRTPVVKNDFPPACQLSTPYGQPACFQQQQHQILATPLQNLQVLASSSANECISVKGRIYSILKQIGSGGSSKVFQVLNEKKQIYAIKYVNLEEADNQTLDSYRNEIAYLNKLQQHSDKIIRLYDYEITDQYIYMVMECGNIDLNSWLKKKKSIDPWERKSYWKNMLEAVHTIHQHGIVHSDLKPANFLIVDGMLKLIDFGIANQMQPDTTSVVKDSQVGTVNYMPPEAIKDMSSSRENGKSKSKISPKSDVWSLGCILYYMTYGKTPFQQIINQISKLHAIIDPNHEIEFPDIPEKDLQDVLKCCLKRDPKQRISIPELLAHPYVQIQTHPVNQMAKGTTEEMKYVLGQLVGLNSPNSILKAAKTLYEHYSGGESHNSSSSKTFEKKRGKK
How it was run: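 Activity detected by indirect ELISA after compounds sat with full-length GST-TTK for 5 min prior to starting the reaction with ATP. IC50 came from a four-parameter logistic curve of % inhibition, calculated against background and uninhibited control wells.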

[2] = system: colon cancer cells (HCT116); assay: Cancer cell line growth inhibition, Sulforhodamine B assay, HCT116; type: cell-based; details: Homo sapiens, HCT-116, HCT116 colon cancer cell line; read-out: Cancer Cell Line GI50 Range HCT116
How it was run: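 HCT116 cells, 1000–4000 per well, seeded 24 h ahead, then treated 5 days with compound at 10 nM to 50 μM final in DMEM with 10% FBS. Growth measured by sulforhodamine B staining after TCA fixation, A570; GI50 from inhibition relative to DMSO-only cells.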

[3] = system: breast cancer cells (MDA-MB-468); assay: Cancer cell line growth inhibition, Sulforhodamine B assay, MDA-MB-468; type: cell-based; details: Homo sapiens, MDA-MB-468, MDA-MB-468 breast cancer cell line; read-out: Cancer Cell Line GI50 Range MDA-MB-468
How it was run: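 MDA-MB-468 cells exposed 5 days to compound at final 10 nM to 50 μM in DMEM with 10% FBS. Growth measured by sulforhodamine B protein staining after TCA fixation, absorbance 570 nm; inhibition relative to DMSO-only cells, GI50 determined for cytotoxic compounds.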

[4] = system: ovarian cancer cells (OVCAR-3); assay: Cancer cell line growth inhibition, Sulforhodamine B assay, OVCAR-3; type: cell-based; details: Homo sapiens, OVCAR-3, OVCAR-3 ovarian cancer cell line; read-out: Cancer Cell Line GI50 Range OVCAR-3
How it was run: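 OVCAR-3 cells were seeded 24 h before compound addition, then exposed for 5 days to final concentrations of 10 nM to 50 μM in DMEM with 10% FBS. Growth was measured by TCA fixation and sulforhodamine B staining with absorbance at 570 nm. Inhibition was relative to DMSO-only cells, and GI50 came from curve fitting.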

Row | Structure (SMILES) | IC50 [1] [nM] | GI50 [2] [nM] | GI50 [3] [nM] | GI50 [4] [nM]
1 | Cc1cc(-c2cnn3c(NCC4(F)CCN(C)CC4)cc(Oc4cccnc4)nc23)ccc1C(=O)NC1CC1 [Example C147] | < 100 | 100 to 500 | 100 to 500 | > 500
2 | Cc1cc(-c2cnn3c(NCC4CCOCC4)cc(-c4ccnn4C)nc23)ccc1C(=O)NC1CC1 [Example C151] | < 100 | ≤ 100 | 100 to 500 | 100 to 500
3 | Cc1cc(-c2cnn3c(NCC4CC4)cc(Oc4cccnc4)nc23)ccc1C(=O)NC1CC1 [Example C152] | < 100 | ≤ 100 | ≤ 100 | ≤ 100
4 | Cc1cc(-c2cnn3c(NCC(C)C)cc(N[C@H]4CCCC[C@H]4O)nc23)ccc1C(=O)NC1CC1 [Example C157] | < 100 | ≤ 100 | ≤ 100 | ≤ 100
5 | Cc1cc(-c2cnn3c(NCC(C)C)cc(N[C@H](CO)C(C)C)nc23)ccc1C(=O)NC1CC1 [Example C158] | < 100 | ≤ 100 | 100 to 500 | 100 to 500
6 | Cc1cc(-c2cnn3c(NC[C@H]4C[C@@H](O)C4)cc(Oc4cccnc4)nc23)ccc1C(=O)NC1CC1 [Example C159] | < 100 | ≤ 100 | ≤ 100 | ≤ 100
7 | Cc1cc(-c2cnn3c(NCC4(F)CCNCC4)cc(NC4CCCC4)nc23)ccc1C(=O)NC1CC1 [Example C169] | < 100 | 100 to 500 | > 500 | > 500
8 | Cc1cc(-c2cnn3c(NCC4(F)CCN(C)CC4)cc(NC4CCCC4)nc23)ccc1C(=O)NC1CC1 [Example C170] | < 100 | 100 to 500 | 100 to 500 | > 500
9 | Cc1cc(-c2cnn3c(NC[C@H]4C[C@H](O)C4)cc(NC4CCCC4)nc23)ccc1C(=O)NC1CC1 [Example C172] | < 100 | ≤ 100 | ≤ 100 | ≤ 100
10 | Cc1cc(-c2cnn3c(NCC4(F)CCNCC4)cc(OC4CCCC4)nc23)ccc1C(=O)NC1CC1 [Example C173] | < 100 | 100 to 500 | > 500 | > 500
11 | Cc1cc(-c2cnn3c(NCC4(F)CCN(C)CC4)cc(OC4CCCC4)nc23)ccc1C(=O)NC1CC1 [Example C174] | < 100 | 100 to 500 | > 500 | > 500
12 | Cc1cc(-c2cnn3c(NCCN4CCN(C)CC4)cc(Oc4cccc(F)c4)nc23)ccc1C(=O)NC1CC1 [Example C178] | < 100 | ≤ 100 | ≤ 100 | 100 to 500
13 | Cc1cc(-c2cnn3c(NCCN4CCCCC4)cc(Oc4cccc(F)c4)nc23)ccc1C(=O)NC1CC1 [Example C180] | < 100 | ≤ 100 | 100 to 500 | 100 to 500
14 | Cc1cc(-c2cnn3c(NCCN4CCOCC4)cc(Oc4ccc(F)cc4)nc23)ccc1C(=O)NC1CC1 [Example C181] | < 100 | ≤ 100 | 100 to 500 | 100 to 500
15 | Cc1cc(-c2cnn3c(NCCN4CCC(O)CC4)cc(N[C@H]4CCCC[C@H]4O)nc23)ccc1C(=O)NC1CC1 [Example C183] | < 100 | > 500 | 100 to 500 | > 500
16 | Cc1cc(-c2cnn3c(NC[C@H]4C[C@](C)(O)C4)cc(NC4CCCC4)nc23)ccc1C(=O)NC1CC1 [Example C186] | < 100 | ≤ 100 | 100 to 500 | 100 to 500

Further lines, results first:

Row | IC50 [1] [nM] | GI50 [2] [nM] | GI50 [3] [nM] | GI50 [4] [nM] | Structure (SMILES)
17 | < 100 | ≤ 100 | 100 to 500 | 100 to 500 | Cc1cc(-c2cnn3c(NCC4CCOCC4)cc(N[C@H]4CCOC4)nc23)ccc1C(=O)NC1CC1 [Example C138]
18 | < 100 | 100 to 500 | 100 to 500 | 100 to 500 | Cc1cc(-c2cnn3c(NCC4CCOCC4)cc(NC4(CO)CC4)nc23)ccc1C(=O)NC1CC1 [Example C139]
19 | < 100 | ≤ 100 | 100 to 500 | 100 to 500 | Cc1cc(-c2cnn3c(NCC4CCOCC4)cc(NC4CC5(COC5)C4)nc23)ccc1C(=O)NC1CC1 [Example C141]
20 | 100 to 500 | > 500 | > 500 | > 500 | Cc1cc(-c2cnn3c(NCC4CCOCC4)cc(N4CC[C@H](O)C4)nc23)ccc1C(=O)NC1CC1 [Example C143]
21 | < 100 | 100 to 500 | 100 to 500 | > 500 | Cc1cc(-c2cnn3c(NCC4CC4)cc(NC4(CO)CCCC4)nc23)ccc1C(=O)NC1CC1 [Example C148]
22 | < 100 | ≤ 100 | 100 to 500 | 100 to 500 | Cc1cc(-c2cnn3c(NCC4CC4)cc(NC4CCOCC4)nc23)ccc1C(=O)NC1CC1 [Example C153]
23 | < 100 | 100 to 500 | 100 to 500 | 100 to 500 | Cc1cc(-c2cnn3c(NC[C@H]4C[C@@H](O)C4)cc(NC4CCOCC4)nc23)ccc1C(=O)NC1CC1 [Example C156]
24 | < 100 | ≤ 100 | 100 to 500 | 100 to 500 | Cc1cc(-c2cnn3c(NCC4CCOCC4)cc(N4CCC[C@H]4CO)nc23)ccc1C(=O)NC1CC1 [Example C161]
25 | < 100 | ≤ 100 | 100 to 500 | 100 to 500 | Cc1cc(-c2cnn3c(NCC4CCOCC4)cc(N[C@H](CO)C4CCCCC4)nc23)ccc1C(=O)NC1CC1 [Example C163]
26 | < 100 | 100 to 500 | 100 to 500 | > 500 | Cc1cc(-c2cnn3c(NCC4CCOCC4)cc(N4CCC[C@@H]4CO)nc23)ccc1C(=O)NC1CC1 [Example C164]
27 | < 100 | ≤ 100 | ≤ 100 | ≤ 100 | Cc1cc(-c2cnn3c(NC[C@H]4CC[C@@H](O)CC4)cc(NC4CCOCC4)nc23)ccc1C(=O)NC1CC1 [Example C179]
